Laboratory results as given in patent US7964724B2, “Chiral cis-imidazolines” (Hoffmann-La Roche Inc., priority 2004, dated 2011).
Structures can show the parent of a compound that is named as a salt.

The compounds below were run against interaction between p53 and MDM2 proteins (recombinant GST-tagged MDM2 / biotinylated p53-peptide) (Homo sapiens, UniProt Q00987) (assay: HTRF assay of inhibition of the p53-MDM2 interaction (In Vitro Activity Assay)).
Assay type: binding
Method: The ability of the compounds to inhibit the interaction between p53 and MDM2 proteins was measured by an HTRF (homogeneous time-resolved fluorescence) assay in which recombinant GST-tagged MDM2 binds to a peptide that resembles the MDM2-interacting region of p53 (Lane et al.). Binding of GST-MDM2 protein and p53-peptide (biotinylated on its N-terminal end) is registered by the FRET (fluorescence resonance energy transfer) between Europium (Eu)-labeled anti-GST antibody and streptavidin-conjugated Allophycocyanin (APC). Test is performed in black flat-bottom 384-well plates (Costar) in a total volume of 40 uL containing: 90 nM biotinylate peptide, 160 ng/ml GST-MDM2, 20 nM streptavidin-APC (PerkinElmerWallac), 2 nM Eu-labeled anti-GST-antibody (PerkinElmerWallac), 0.2% bovine serum albumin (BSA), 1 mM dithiothreitol (DTT) and 20 mM […] (TBS) buffer as follows: Add 10 uL of GST-MDM2 (640 ng/ml working solution) in reaction buffer to each well. Add 10 uL dilution compounds (1:5 dilution in reaction buffer) to each well, mix by shaking, Add 20 uL biotinylated p53 peptide (180 nM working solution) in reaction buffer to each well and mix on shaker. Incubate at 37° C. for 1 h. Add 20 uL streptavidin-APC and Eu-anti-GST antibody mixture (6 nM Eu-anti-GST and 60 nM streptavidin-APC working solution) in TBS buffer with 0.2% BSA, shake at room temperature for 30 minutes and read using a TRF-capable plate reader at 665 and 615 nm (Victor 5, Perkin ElmerWallac). If not specified, the reagents were purchased from Sigma Chemical Co.

interaction between p53 and MDM2 proteins (recombinant GST-tagged MDM2 / biotinylated p53-peptide), sequence (Q00987 whole entry): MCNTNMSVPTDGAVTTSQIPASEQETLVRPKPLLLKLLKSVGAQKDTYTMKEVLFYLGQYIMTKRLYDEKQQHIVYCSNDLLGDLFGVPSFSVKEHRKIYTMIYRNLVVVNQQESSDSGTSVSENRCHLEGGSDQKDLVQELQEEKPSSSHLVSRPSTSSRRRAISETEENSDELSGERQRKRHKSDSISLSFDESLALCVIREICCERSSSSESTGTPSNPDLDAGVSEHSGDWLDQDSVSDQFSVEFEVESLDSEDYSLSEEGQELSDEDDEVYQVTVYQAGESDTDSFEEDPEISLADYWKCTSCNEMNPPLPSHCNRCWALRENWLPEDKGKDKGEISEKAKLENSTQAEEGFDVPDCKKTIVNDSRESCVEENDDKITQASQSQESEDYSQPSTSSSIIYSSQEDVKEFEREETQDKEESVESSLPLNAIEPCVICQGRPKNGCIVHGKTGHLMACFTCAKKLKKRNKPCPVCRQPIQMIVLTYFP

Row | SMILES | IC50 [nM]
1 | C#Cc1ccc([C@@H]2[C@H](c3ccc(C#C)cc3)N=C(c3ccc(C(C)(C)C)cc3OCC)N2C(=O)N2CCN(CCS(C)(=O)=O)CC2)cc1 [Example 35, [(4S,5R)-2-(4-tert-Butyl-2-ethoxy-phenyl)-4,5-bis-(4-ethynyl-phenyl)-4,5-dihydro-imidazol-1-yl]-[4-(2-methanesulfonyl-ethyl)-piperazin-1-yl]-methanone hydrochloride] | 11
2 | CCOc1cc(C(C)(C)C)ccc1C1=N[C@@H](c2ccc(Cl)cc2)[C@@H](c2ccc(Cl)cc2)N1C(=O)N1CCC(N2CCCC2)CC1 [Example 74, [(4S,5R)-2-(4-tert-Butyl-2-ethoxy-phenyl)-4,5-bis-(4-chloro-phenyl)-4,5-dihydro-imidazol-1-yl]-(4-pyrrolidin-1-yl-piperidin-1-yl)-methanone hydrochloride] | 24
3 | CCOc1cc(C(C)(C)C)ccc1C1=N[C@@H](c2ccc(F)cc2)[C@@H](c2ccc(F)cc2)N1C(=O)N1CCNC(=O)C1 [Example 27, 4-[(4S,5R)-2-(4-tert-Butyl-2-ethoxy-phenyl)-4,5-bis-(4-fluoro-phenyl)-4,5-dihydro-imidazole-1-carbonyl]-piperazin-2-one hydrochloride] | 3100
4 | CCOc1cc(C(C)(C)C)ccc1C1=N[C@@H](c2ccc(F)cc2)[C@@H](c2ccc(F)cc2)N1C(=O)N1CCN(CCS(C)(=O)=O)CC1 [Example 26, [(4S,5R)-2-(4-tert-Butyl-2-ethoxy-phenyl)-4,5-bis-(4-fluoro-phenyl)-4,5-dihydro-imidazol-1-yl]-[4-(2-methanesulfonyl-ethyl)-piperazin-1-yl]-methanone hydrochloride] | 60
